Assay: stability as a storage form
Format: physicochemical
Conditions: statement in words, no method or data given

- formation of a stable storage form: does not form a stable storage form
SMILES: COc1ccnc(C[S+]([O-])c2nc3cc(OC(F)F)ccc3[n-]2)c1OC.[Na+] [sodium salt of (−)- or (S)-pantoprazole]
